Reference: US5023353A, “Deoxoartemisinin: new compound and composition for the treatment of malaria” (priority 1990, dated 1991)
In brackets after ≈: the same amount, converted by molar mass. Read-outs that look alike come from different tables or passages of the source.

Experiments:
[1] = background statement; cited from earlier work
[2] = in vivo; cited from earlier work
[3] = system: Plasmodium falciparum D-6; experiment: In vitro antimalarial activity, semiautomated microdilution (hypoxanthine incorporation), D-6 clone; assay type: cell-based; settings: for IC50: Plasmodium falciparum, read-out: In Vitro Antimalarial Activity IC50, D-6
Protocol: (§1) The intrinsic antimalarial activities of deoxoartemisinin and various control drugs were quantitatively assessed by using modifications of the semiautomated microdilution method of Desjardins. Deoxoartemisinin was dissolved in DMSO and subsequently diluted in culture medium with 10% plasma. Equimolar starting concentrations were predetermined to generate well-defined concentration curves over a 64-fold range of dilutions. Microtiter plates prepared with serial dilutions of drug and parasite suspensions (at 0.5% parasitemia and 1.5% hematocrit) were incubated at 37° C. in an air-tight plexiglass box, which was flushed with 5% oxygen, 5% carbon dioxide, and 90% nitrogen. After 24 hours of incubation, cultures were labeled with tritiated hypoxanthine and incubated for an additional 18-20 hours prior to harvesting particulate matter on fiber glass strips. Hypoxanthine incorporation in each well was determined by scintillation spectrophotometry and served as an index of specific parasite growth rates. Computer-generated concentration-response curves were analyzed by non-linear regression, and 50% inhibitory concentrations were calculated for each drug. The antimalarial tests were conducted using cultures obtained from the Malaria Laboratory, Division of Experimental Therapeutics, WRAIR/WRAMC, Washington, D.C. The W-2 culture utilized in the testing of Example II was of Indochina origin, chloroquine-resistant and mefloquine-sensitive. The other culture D-6, used in the testing of Example II and reported in Table I, is of Sierra Leone origin, chloroquine-sensitive and mefloquine-resistant.
(§2) Set out in Table I are the comparative results obtained from in vitro testing the activity of the inventive compound, known antimalarial compounds, artemisinin, and another derivative of artemisinin.

[4] = system: Plasmodium falciparum W-2; experiment: In vitro antimalarial activity, semiautomated microdilution (hypoxanthine incorporation), W-2 clone; assay type: cell-based; settings: for IC50: Plasmodium falciparum, read-out: In Vitro Antimalarial Activity IC50, W-2
Protocol: as §1, §2

[5] = Solubility and lipophilicity
[6] = system: Plasmodium falciparum; experiment: Antimalarial screening tests in vitro; assay type: cell-based; settings: nonperoxy compounds
Protocol: as §1, with “The W-2 culture utilized in the testing of Example II was of Indochina origin, chloroquine-resistant and mefloquine-sensitive. The other culture D-6, used in the testing of Example II and reported in Table I, is of Sierra Leone origin, chloroquine-sensitive and mefloquine-resistant.” left out

[7] = D-6 clone, Sierra Leone origin, chloroquine-sensitive and mefloquine-resistant
[8] = W-2 clone, Indochina origin, chloroquine-resistant and mefloquine-sensitive

Row | IC50 [3, 7] | IC50 [4, 8] | Compound | IC50 [3] | IC50 [4] | further results
1 | 7.3 ng/mL (≈ 0.0193 µM) | 0.74 ng/mL (≈ 0.00196 µM) | OC(c1cc(C(F)(F)F)nc2c(C(F)(F)F)cccc12)C1CCCCN1 (centres unmarked) [Mefloquine] | – | – | –
2 | 0.05 ng/mL (≈ 0.000201 µM) | 39.3 ng/mL (≈ 0.158 µM) | CCc1nc(N)nc(N)c1-c1ccc(Cl)cc1 [Pyrimethamine] | – | – | –
3 | 16.4 ng/mL (≈ 0.0527 µM) | 14300 ng/mL (≈ 46.2 µM) | COc1ncnc(NS(=O)(=O)c2ccc(N)cc2)c1OC [Sulfadoxine] | – | – | –

More lines, now with the values behind:

Row | Compound | IC50 [3, 7] | IC50 [4, 8] | IC50 [3] | IC50 [4] | further results
4 | C[C@@H]1CC[C@H]2[C@@H](C)C(=O)O[C@@H]3O[C@@]4(C)CC[C@@H]1[C@]32OO4 [Artemisinin, artemisinin] | 2.33 ng/mL (≈ 0.00825 µM) | 1.21 ng/mL (≈ 0.00429 µM) | – | – | solubility in water or oils [1]: only sparingly soluble in either water or oils; side effects [2]: No side effects
5 | CCN(CC)CCCC(C)Nc1ccnc2cc(Cl)ccc12 (centres unmarked) [Chloroquine] | – | – | 2.69 ng/mL (≈ 0.00841 µM) | 55.7 ng/mL (≈ 0.174 µM) | –
6 | CC1CCC2C(C)COC3OC4(C)CCC1C32OO4 (centres unmarked) [Deoxoartemisinin, deoxoartemisinin] | 0.58 ng/mL (≈ 0.00216 µM) | 0.15 ng/mL (≈ 0.000559 µM) | – | – | solubility in organic solvents [5]: soluble in chloroform, diethylether, acetonitrile, cyclohexane and hexane; antimalarial activity in vitro as compared to artemisinin, chloroquine-sensitive malaria ([3]; against chloroquine-sensitive malaria, relative to artemisinin): approximately eight; antimalarial activity in vitro as compared to artemisinin, chloroquine-resistant malaria ([4]; against chloroquine-resistant malaria, relative to artemisinin): four
7 | C[C@@H]1CC[C@H]2[C@@H](C)C(=O)O[C@@H]3O[C@@]4(C)CC[C@@H]1[C@]32O4 [Deoxyartemisinin, deoxyartemisinin] | 762 ng/mL (≈ 2.86 µM) | – | – | – | activity in the antimalarial screening tests [6]: failed to exhibit activity
8 | C=C[C@H]1C[N@@]2CC[C@H]1C[C@H]2[C@H](O)c1ccnc2ccc(OC)cc12 [Quinine] | – | – | 10.8 ng/mL (≈ 0.0333 µM) | 59.7 ng/mL (≈ 0.184 µM) | –
9 | CN(C)[C@@H]1C(=O)C(C(N)=O)=C(O)[C@@]2(O)C(=O)C3=C(O)c4c(O)cccc4[C@@](C)(O)[C@H]3C[C@@H]12 [Tetracycline] | – | – | 7230 ng/mL (≈ 16.3 µM) | 10200 ng/mL (≈ 23 µM) | –
